Data as given in the NIST ThermoML archive (doi:10.1016/j.jct.2005.07.015).
± gives the expanded uncertainty stated by the source.

Details: Liquid, Closed cell (Static) method

CCO [ethanol]
vapor or sublimation pressure (298.15 K): 7.878 ± 0.023 kPa | vapor or sublimation pressure (303.15 K): 10.47 ± 0.027 kPa | vapor or sublimation pressure (308.15 K): 13.77 ± 0.034 kPa | vapor or sublimation pressure (313.15 K): 17.91 ± 0.042 kPa | vapor or sublimation pressure (318.15 K): 23.07 ± 0.052 kPa | vapor or sublimation pressure (323.15 K): 29.46 ± 0.063 kPa
